Experimental data: patent US20060100245A1, “Substituted biphenyl-4-carboxylic acid arylamide analogues” (Neurogen Corporation, priority 2002, published 2006)

What was measured:
[1] = molecular target: T1, human capsaicin receptor (VR1) (Homo sapiens, UniProt Q8NER1); assay: Capsaicin receptor binding assay ([3H]RTX competition); conditions: read-out: Ki
T1 construct: transfected with the pBK-CMV expression construct encoding the full length human capsaicin receptor; expressed in transfected cells
How it was run: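 Membranes from HEK293 cells stably expressing full-length human VR1; competition against 60 pM [3H]RTX, 60 min at 37 °C in HEPES/sucrose buffer pH 7.4 with 0.25 mg/ml BSA. Non-specific binding defined with 1 μM unlabelled RTX; alpha1-acid glycoprotein added after termination on ice.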

human capsaicin receptor = molecular target: T2, human capsaicin receptor (Homo sapiens, UniProt Q8NER1); assay: Calcium mobilization assay, determination of agonist activity; type: cell-based; conditions: capsaicin positive control, cells expressing human capsaicin receptor; read-out: approximate EC90 concentration
T2 construct: transfected with the pBK-CMV expression construct encoding the full length human capsaicin receptor; expressed in transfected cells
Experimental: This Example illustrates representative calcium mobilization assays for use in evaluating test compounds for agonist and antagonist activity.
Cells transfected with expression plasmids (as described in Example 4) and thereby expressing human capsaicin receptor are seeded and grown to 70-90% confluency in FALCON black-walled, clear-bottomed 96-well plates (#3904, BECTON-DICKINSON, Franklin Lakes, N.J.). […]
To measure the ability of a test compound to agonize or antagonize a calcium mobilization response in cells expressing capsaicin receptors to capsaicin or other vanilloid agonist, the EC50 of the agonist capsaicin is first determined. […] Capsaicin-induced calcium mobilization is monitored using either FLUOROSKAN ASCENT (Labsystems; Franklin, Mass.) or FLIPR (fluorometric imaging plate reader system; Molecular Devices, Sunnyvale, Calif.) instruments. […] In this equation, y is the maximum fluorescence signal, x is the concentration of the agonist or antagonist (in this case, capsaicin), a is the Emax, b corresponds to the EC50 value and c is the Hill coefficient. […]
The ability of a test compound to act as an agonist of the capsaicin receptor is determined by measuring the fluorescence response of cells expressing capsaicin receptors elicited by the compound as function of compound concentration.

T1 sequence (Q8NER1 whole entry): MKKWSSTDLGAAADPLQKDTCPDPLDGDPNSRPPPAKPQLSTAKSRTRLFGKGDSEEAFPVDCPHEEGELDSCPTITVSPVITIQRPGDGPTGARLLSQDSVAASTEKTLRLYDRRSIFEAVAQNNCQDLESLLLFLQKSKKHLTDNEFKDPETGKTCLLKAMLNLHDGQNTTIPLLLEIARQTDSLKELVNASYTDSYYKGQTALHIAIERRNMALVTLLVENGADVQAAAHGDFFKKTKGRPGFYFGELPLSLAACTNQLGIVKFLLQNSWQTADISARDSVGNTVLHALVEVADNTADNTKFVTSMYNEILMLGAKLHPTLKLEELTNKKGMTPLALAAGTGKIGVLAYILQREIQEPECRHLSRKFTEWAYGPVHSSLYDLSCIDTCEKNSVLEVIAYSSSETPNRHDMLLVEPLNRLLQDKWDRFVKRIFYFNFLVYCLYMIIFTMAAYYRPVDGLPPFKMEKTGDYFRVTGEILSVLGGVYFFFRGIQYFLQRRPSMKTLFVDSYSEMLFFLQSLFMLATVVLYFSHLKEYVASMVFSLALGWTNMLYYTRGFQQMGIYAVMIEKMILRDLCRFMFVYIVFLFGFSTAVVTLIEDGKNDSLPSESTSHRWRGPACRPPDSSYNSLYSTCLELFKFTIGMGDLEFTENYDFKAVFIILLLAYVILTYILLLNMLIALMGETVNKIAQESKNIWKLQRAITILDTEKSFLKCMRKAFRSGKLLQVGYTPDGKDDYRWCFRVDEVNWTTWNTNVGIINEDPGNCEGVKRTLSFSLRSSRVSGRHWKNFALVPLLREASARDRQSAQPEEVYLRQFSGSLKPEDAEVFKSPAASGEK
T2 sequence (Q8NER1 whole entry): as above

SMILES: O=C(Nc1ccc2c(c1)CCC2)c1ccc(-c2cccc(OC(F)(F)F)c2)nc1 [Compound 464, N-Indan-5-yl-6-(3-trifluoromethoxy-phenyl)-nicotinamide]
- Ki [1]: < 1000 nM

SMILES: Cc1ccccc1-c1ccc(C(=O)Nc2ccc3c(c2)CCC3)cn1 [Compound 470, N-Indan-5-yl-6-o-tolyl-nicotinamide]
- Ki [1]: < 1000 nM

SMILES: O=C(Nc1ccc2c(c1)CCC2)c1ccc(-c2ccccc2)nc1 [Compound 471, N-Indan-5-yl-6-phenyl-nicotinamide]
- Ki [1]: < 1000 nM

SMILES: COc1cc(CNC(=O)CCCC/C=C/C(C)C)ccc1O [capsaicin]
- EC90 (human capsaicin receptor): ~100 nM
